Earlier results, collected in patent US8349312B2, “Proline substituted cyclosporin analogues” (Enanta Pharmaceuticals, Inc., priority 2009, dated 2013).

Legend:
cyclophilin A = cyclophilin A (Homo sapiens, UniProt P62937)
hepatitis C virus = conditions: Paeshuyse et al., Antiviral Research 65(3):A41 (2005)

Chain of cyclophilin A (P62937 whole entry, species assumed): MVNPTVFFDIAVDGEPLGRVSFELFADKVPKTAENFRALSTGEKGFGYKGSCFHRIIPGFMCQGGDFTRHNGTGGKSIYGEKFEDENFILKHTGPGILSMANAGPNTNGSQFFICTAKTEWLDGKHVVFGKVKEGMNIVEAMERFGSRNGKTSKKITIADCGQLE

binding affinity for cyclophilin A (cyclophilin A): potent binding affinity
Structure (SMILES): C/C=C/C[C@@H](C)[C@@H](O)[C@H]1C(=O)N[C@@H](CC)C(=O)N(C)[C@H](C)C(=O)N(CC)[C@@H](C(C)C)C(=O)N[C@@H](C(C)C)C(=O)N(C)[C@@H](CC(C)C)C(=O)N[C@@H](C)C(=O)N[C@H](C)C(=O)N(C)[C@@H](CC(C)C)C(=O)N(C)[C@@H](CC(C)C)C(=O)N(C)[C@@H](C(C)C)C(=O)N1C [DEBIO-025]
inhibition of hepatitis C virus replication (hepatitis C virus): potent and selective inhibition
